The results in this text go back to patent publication US12465637B2, “Compositions and methods for modulation of antibody activity” (Institute for Cancer Research, priority 2019, dated 2025).

Usually EC50 stands for the concentration that produces a half-maximal response. Low values mean higher potency in that assay, high ones lower potency in that assay.

The test system of assay [1] is CTLA-4. As to the kind of experiment: CTLA-4 sandwich ELISA (BioLegend). It is filed as binding. The settings on record: compared with ipilimumab. On the procedure:
Two anti-CTLA-4 scFv constructs (3GSWT with -GG(GGSGG)3GG- linker (SEQ ID NO: 6) and 5GSWT with -GG(GGSGG)5GG- linker (SEQ ID NO: 7)) were generated based on ipilimumab. The activity of each scFv antibody construct was compared via a sandwich ELISA assay (BioLegend; San Diego, CA), according to the manufacturer's instruction.
The triple mutation (VLF98G/VHV37A/VHW110G) was introduced into the 5GSWT scFv construct. The ability of JK43 to rescue the triple mutant was then tested. Briefly, the ability of the wild-type (5GSWT scFv construct) and triple mutant constructs to bind CTLA-4 was tested in the presence or absence of JK43 using the above sandwich ELISA assay, according to the manufacturer's instructions.
(ELISA stands for enzyme-linked immunosorbent assay.)

In assay [2] the test system is 4D5Flu triple mutant (VLF98G/VHV37A/VHW110G). Briefly: Fluorescein fluorescence quenching, effector (JK43/analog) rescue of triple mutant. It is filed as biochemical. Particulars: effector titration; 500 nM triple mutant, 10 nM fluorescein, 1% DMSO. On the procedure:
For the protein titration experiment, samples were prepared by titrating varying concentrations of protein (WT or triple mutant) into PBS containing a final concentration of 10 nM fluorescein and 1% DMSO, with or without 100 μM JK43. For the JK43 titration experiment, samples were prepared by titrating varying concentrations of JK43 into PBS with a final concentration of 10 nM fluorescein, 1% DMSO and 500 nM protein (WT or triple mutant). For the SAR experiment, samples were prepared by adding 10 μM of JK43 analogs into PBS with a final concentration of 10 nM fluorescein, 1% DMSO and 500 nM triple mutant.
Fluorescence quenching experiments were carried out in a SpectraMax® i3x Multi-Mode Microplate Reader (Molecular Devices), using a Costar 96-well black round bottom plates, 200 μL reaction volume, excitation wavelength of 475 nm and emission wavelength of 525 nm, at a temperature of 27° C. Blank measurements containing all sample components except fluorescein were subtracted to remove background. All samples were normalized to a control of fluorescein alone (0% quenching) and buffer alone (100% quenching).

Take “3GSWT: anti-CTLA-4 scFv based on ipilimumab with -GG(GGSGG)3GG- linker (SEQ ID NO: 22)”: the “Binding of CTLA-4 (FIG. 6B)” value in assay [1] is reported as “readily bind CTLA-4, albeit slightly less potently than ipilimumab”.

`c1ccc(COc2ccc3cn[nH]c3c2)cc1` [JK43, 6-phenylmethoxy-1H-indazole] returned an EC50 in assay [2] of 16 µM.

`c1ccc(COc2ccc3cc[nH]c3c2)cc1` [JK25, 6-phenylmethoxy-1H-indole]: the EC50 in assay [2] came out at 25 µM.
